According to ChEMBL document CHEMBL5442219:

Experiments:
Conditions in all cases: Compound concentration 10 µM
[1] = target: Beta-2 adrenergic receptor (Homo sapiens) (UniProt P07550)
Description: PDSP Primary Binding target: ADRB2 - Compounds are tested at 10 uM concentration, plate are incubated at room temperature in the dark for 90 minutes. Reaction are stopped by vacuum filtration onto 0.3% polyethyleneimine soaked filter mats using Filtermate harvester. Scintilation cocktail is then melted onto microwave-dried filters on a hot plate and the radio activity is counted in Microbia counter.

[2] = target: T1, Muscarinic acetylcholine receptor M5 (Homo sapiens) (UniProt P08912)
T1 sequence (whole entry): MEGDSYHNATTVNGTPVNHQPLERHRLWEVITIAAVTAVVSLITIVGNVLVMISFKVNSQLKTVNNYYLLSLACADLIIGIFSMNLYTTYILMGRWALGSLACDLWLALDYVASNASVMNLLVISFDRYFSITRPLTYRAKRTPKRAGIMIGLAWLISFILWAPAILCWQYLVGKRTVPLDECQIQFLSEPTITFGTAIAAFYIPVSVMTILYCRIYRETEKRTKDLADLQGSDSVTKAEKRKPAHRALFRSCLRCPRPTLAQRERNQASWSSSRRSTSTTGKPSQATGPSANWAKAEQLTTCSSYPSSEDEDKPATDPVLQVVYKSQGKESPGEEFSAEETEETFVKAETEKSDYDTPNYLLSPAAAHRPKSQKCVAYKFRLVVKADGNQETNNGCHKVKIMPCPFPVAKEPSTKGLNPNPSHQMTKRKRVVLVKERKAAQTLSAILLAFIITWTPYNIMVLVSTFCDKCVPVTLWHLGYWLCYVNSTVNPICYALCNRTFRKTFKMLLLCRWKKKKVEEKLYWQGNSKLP
Description: PDSP Primary Binding target: CHRM5 - Compounds are tested at 10 uM concentration, plate are incubated at room temperature in the dark for 90 minutes. Reaction are stopped by vacuum filtration onto 0.3% polyethyleneimine soaked filter mats using Filtermate harvester. Scintilation cocktail is then melted onto microwave-dried filters on a hot plate and the radio activity is counted in Microbia counter.

[3] = target: Sigma non-opioid intracellular receptor 1 (Homo sapiens) (UniProt Q99720)
Chain of Sigma non-opioid intracellular receptor 1 (Homo sapiens) (Q99720 whole entry): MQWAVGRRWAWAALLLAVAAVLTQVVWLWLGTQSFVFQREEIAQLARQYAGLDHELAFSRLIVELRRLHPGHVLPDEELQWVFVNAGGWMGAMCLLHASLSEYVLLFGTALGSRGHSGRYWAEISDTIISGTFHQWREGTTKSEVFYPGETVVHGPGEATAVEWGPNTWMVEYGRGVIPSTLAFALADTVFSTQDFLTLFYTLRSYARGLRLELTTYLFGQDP
Description: PDSP Primary Binding target: SIGMAR1 - Compounds are tested at 10 uM concentration, plate are incubated at room temperature in the dark for 90 minutes. Reaction are stopped by vacuum filtration onto 0.3% polyethyleneimine soaked filter mats using Filtermate harvester. Scintilation cocktail is then melted onto microwave-dried filters on a hot plate and the radio activity is counted in Microbia counter.

[4] = target: Sodium-dependent dopamine transporter (Homo sapiens) (UniProt Q01959)
Chain of Sodium-dependent dopamine transporter (Homo sapiens) (Q01959 whole entry): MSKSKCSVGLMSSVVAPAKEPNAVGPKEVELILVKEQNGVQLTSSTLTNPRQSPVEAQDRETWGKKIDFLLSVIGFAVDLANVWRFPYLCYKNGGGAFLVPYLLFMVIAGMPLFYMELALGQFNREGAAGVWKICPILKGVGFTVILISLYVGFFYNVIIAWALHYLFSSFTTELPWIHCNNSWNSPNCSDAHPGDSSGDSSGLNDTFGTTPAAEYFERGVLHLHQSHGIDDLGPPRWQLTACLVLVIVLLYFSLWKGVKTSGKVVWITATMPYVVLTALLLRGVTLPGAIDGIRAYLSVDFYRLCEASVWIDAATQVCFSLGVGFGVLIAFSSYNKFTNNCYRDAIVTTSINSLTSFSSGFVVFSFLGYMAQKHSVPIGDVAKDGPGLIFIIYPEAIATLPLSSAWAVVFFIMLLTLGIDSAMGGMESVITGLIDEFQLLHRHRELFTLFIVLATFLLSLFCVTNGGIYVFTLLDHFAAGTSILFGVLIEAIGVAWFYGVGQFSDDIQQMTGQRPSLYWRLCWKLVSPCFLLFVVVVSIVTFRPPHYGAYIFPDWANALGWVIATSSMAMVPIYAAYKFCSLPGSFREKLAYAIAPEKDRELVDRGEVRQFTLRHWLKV
Description: PDSP Primary Binding target: SLC6A3 - Compounds are tested at 10 uM concentration, plate are incubated at room temperature in the dark for 90 minutes. Reaction are stopped by vacuum filtration onto 0.3% polyethyleneimine soaked filter mats using Filtermate harvester. Scintilation cocktail is then melted onto microwave-dried filters on a hot plate and the radio activity is counted in Microbia counter.

[5] = target: T2, Alpha-1B adrenergic receptor (Homo sapiens) (UniProt P35368)
T2 sequence (whole entry): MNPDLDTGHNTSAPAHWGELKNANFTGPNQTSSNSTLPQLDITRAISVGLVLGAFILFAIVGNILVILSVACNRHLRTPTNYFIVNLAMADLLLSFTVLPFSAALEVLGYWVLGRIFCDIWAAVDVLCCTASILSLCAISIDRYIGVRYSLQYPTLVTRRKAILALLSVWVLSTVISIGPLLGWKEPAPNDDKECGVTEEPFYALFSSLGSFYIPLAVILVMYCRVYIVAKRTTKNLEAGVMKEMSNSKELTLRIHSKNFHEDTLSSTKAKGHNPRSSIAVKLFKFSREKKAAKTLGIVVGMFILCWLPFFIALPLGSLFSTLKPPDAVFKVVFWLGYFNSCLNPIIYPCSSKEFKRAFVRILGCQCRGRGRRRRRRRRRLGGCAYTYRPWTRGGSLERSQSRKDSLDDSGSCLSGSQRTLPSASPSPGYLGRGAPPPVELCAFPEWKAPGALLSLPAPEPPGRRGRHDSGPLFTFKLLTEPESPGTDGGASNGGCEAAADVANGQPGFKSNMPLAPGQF
Description: PDSP Primary Binding target: ADRA1B - Compounds are tested at 10 uM concentration, plate are incubated at room temperature in the dark for 90 minutes. Reaction are stopped by vacuum filtration onto 0.3% polyethyleneimine soaked filter mats using Filtermate harvester. Scintilation cocktail is then melted onto microwave-dried filters on a hot plate and the radio activity is counted in Microbia counter.

[6] = target: T3, 5-hydroxytryptamine receptor 3A (Homo sapiens) (UniProt P46098)
T3 sequence (whole entry): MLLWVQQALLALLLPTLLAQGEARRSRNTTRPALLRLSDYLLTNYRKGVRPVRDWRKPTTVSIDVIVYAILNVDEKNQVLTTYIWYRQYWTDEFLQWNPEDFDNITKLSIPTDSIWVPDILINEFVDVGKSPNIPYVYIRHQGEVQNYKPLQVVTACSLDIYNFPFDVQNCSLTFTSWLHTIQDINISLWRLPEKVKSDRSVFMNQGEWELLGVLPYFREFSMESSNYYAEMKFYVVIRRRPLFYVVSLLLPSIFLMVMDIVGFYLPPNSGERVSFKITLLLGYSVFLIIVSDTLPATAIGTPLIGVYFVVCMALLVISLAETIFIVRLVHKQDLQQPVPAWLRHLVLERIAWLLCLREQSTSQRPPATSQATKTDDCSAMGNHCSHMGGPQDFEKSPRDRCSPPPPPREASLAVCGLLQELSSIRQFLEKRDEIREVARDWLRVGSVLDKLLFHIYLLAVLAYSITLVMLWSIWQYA
Description: PDSP Primary Binding target: HTR3A - Compounds are tested at 10 uM concentration, plate are incubated at room temperature in the dark for 90 minutes. Reaction are stopped by vacuum filtration onto 0.3% polyethyleneimine soaked filter mats using Filtermate harvester. Scintilation cocktail is then melted onto microwave-dried filters on a hot plate and the radio activity is counted in Microbia counter.

[7] = target: T4, Alpha-2B adrenergic receptor (Homo sapiens) (UniProt P18089)
T4 sequence (whole entry): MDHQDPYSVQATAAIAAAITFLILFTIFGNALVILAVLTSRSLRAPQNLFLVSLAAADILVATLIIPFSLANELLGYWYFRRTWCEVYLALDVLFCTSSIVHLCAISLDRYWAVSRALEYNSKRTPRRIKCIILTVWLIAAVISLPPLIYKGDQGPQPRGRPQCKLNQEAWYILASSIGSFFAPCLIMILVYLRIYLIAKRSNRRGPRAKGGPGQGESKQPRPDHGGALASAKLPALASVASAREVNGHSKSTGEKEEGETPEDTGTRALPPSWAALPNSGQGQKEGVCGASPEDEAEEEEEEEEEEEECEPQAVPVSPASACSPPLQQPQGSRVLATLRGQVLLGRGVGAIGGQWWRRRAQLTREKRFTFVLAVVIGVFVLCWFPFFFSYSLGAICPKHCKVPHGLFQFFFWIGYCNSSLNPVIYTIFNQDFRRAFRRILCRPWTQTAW
Description: PDSP Primary Binding target: ADRA2B - Compounds are tested at 10 uM concentration, plate are incubated at room temperature in the dark for 90 minutes. Reaction are stopped by vacuum filtration onto 0.3% polyethyleneimine soaked filter mats using Filtermate harvester. Scintilation cocktail is then melted onto microwave-dried filters on a hot plate and the radio activity is counted in Microbia counter.

[8] = target: Kappa-type opioid receptor (Homo sapiens) (UniProt P41145)
Chain of Kappa-type opioid receptor (Homo sapiens) (P41145 whole entry): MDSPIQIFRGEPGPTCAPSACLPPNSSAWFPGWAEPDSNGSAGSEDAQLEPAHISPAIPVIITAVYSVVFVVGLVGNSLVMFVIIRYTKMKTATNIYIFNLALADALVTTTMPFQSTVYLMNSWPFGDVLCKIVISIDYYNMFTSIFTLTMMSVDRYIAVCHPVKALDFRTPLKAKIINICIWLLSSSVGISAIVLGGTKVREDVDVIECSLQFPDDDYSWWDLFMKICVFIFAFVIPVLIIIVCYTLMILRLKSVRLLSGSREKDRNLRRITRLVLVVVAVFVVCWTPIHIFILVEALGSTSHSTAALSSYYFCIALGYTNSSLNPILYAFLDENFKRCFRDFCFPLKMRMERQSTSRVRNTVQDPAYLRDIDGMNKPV
Description: PDSP Primary Binding target: OPRK1 - Compounds are tested at 10 uM concentration, plate are incubated at room temperature in the dark for 90 minutes. Reaction are stopped by vacuum filtration onto 0.3% polyethyleneimine soaked filter mats using Filtermate harvester. Scintilation cocktail is then melted onto microwave-dried filters on a hot plate and the radio activity is counted in Microbia counter.

[9] = target: Translocator protein (Homo sapiens) (UniProt P30536)
Chain of Translocator protein (Homo sapiens) (P30536 whole entry): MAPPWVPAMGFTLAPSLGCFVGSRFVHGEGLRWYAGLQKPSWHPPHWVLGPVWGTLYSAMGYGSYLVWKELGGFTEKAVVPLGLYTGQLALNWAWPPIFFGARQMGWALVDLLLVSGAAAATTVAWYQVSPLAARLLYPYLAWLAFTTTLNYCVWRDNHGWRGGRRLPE
Description: PDSP Primary Binding target: TSPO - Compounds are tested at 10 uM concentration, plate are incubated at room temperature in the dark for 90 minutes. Reaction are stopped by vacuum filtration onto 0.3% polyethyleneimine soaked filter mats using Filtermate harvester. Scintilation cocktail is then melted onto microwave-dried filters on a hot plate and the radio activity is counted in Microbia counter.

[10] = target: Mu-type opioid receptor (Homo sapiens) (UniProt P35372)
Chain of Mu-type opioid receptor (Homo sapiens) (P35372 whole entry): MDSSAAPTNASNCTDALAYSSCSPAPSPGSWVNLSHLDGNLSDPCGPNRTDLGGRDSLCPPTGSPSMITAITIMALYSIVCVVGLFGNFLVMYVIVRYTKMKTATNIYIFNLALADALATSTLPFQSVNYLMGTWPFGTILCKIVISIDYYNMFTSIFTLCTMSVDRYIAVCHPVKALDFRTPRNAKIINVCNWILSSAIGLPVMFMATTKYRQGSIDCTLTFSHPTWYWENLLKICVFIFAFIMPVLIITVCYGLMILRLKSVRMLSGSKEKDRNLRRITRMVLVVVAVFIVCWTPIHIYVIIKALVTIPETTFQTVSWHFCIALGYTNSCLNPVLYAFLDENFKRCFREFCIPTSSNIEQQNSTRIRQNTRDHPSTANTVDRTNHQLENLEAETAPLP
Description: PDSP Primary Binding target: OPRM1 - Compounds are tested at 10 uM concentration, plate are incubated at room temperature in the dark for 90 minutes. Reaction are stopped by vacuum filtration onto 0.3% polyethyleneimine soaked filter mats using Filtermate harvester. Scintilation cocktail is then melted onto microwave-dried filters on a hot plate and the radio activity is counted in Microbia counter.

[11] = target: 5-hydroxytryptamine receptor 6 (Homo sapiens) (UniProt P50406)
Chain of 5-hydroxytryptamine receptor 6 (Homo sapiens) (P50406 whole entry): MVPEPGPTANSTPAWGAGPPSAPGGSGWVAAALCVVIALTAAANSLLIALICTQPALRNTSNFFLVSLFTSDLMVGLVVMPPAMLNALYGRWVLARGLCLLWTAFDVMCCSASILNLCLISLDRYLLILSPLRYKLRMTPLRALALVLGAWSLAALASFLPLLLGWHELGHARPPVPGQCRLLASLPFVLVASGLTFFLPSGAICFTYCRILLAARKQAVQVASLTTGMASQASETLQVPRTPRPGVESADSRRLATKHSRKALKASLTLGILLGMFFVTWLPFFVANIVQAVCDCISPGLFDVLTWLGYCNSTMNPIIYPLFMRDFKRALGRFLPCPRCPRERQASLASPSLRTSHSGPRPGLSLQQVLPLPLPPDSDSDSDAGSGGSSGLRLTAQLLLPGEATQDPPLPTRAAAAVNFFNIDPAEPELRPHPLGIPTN
Description: PDSP Primary Binding target: HTR6 - Compounds are tested at 10 uM concentration, plate are incubated at room temperature in the dark for 90 minutes. Reaction are stopped by vacuum filtration onto 0.3% polyethyleneimine soaked filter mats using Filtermate harvester. Scintilation cocktail is then melted onto microwave-dried filters on a hot plate and the radio activity is counted in Microbia counter.

[12] = target: Delta-type opioid receptor (Homo sapiens) (UniProt P41143)
Chain of Delta-type opioid receptor (Homo sapiens) (P41143 whole entry): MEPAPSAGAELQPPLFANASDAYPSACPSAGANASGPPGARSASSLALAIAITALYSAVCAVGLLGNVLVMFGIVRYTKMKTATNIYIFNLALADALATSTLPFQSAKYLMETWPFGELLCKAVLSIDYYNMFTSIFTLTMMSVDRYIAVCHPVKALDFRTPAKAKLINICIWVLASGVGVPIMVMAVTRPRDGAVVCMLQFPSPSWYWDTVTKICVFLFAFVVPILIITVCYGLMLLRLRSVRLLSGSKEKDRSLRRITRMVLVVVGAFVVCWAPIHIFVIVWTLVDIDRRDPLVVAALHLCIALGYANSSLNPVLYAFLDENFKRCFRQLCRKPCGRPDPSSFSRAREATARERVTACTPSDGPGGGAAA
Description: PDSP Primary Binding target: OPRD1 - Compounds are tested at 10 uM concentration, plate are incubated at room temperature in the dark for 90 minutes. Reaction are stopped by vacuum filtration onto 0.3% polyethyleneimine soaked filter mats using Filtermate harvester. Scintilation cocktail is then melted onto microwave-dried filters on a hot plate and the radio activity is counted in Microbia counter.

[13] = target: Sodium-dependent noradrenaline transporter (Homo sapiens) (UniProt P23975)
Chain of Sodium-dependent noradrenaline transporter (Homo sapiens) (P23975 whole entry): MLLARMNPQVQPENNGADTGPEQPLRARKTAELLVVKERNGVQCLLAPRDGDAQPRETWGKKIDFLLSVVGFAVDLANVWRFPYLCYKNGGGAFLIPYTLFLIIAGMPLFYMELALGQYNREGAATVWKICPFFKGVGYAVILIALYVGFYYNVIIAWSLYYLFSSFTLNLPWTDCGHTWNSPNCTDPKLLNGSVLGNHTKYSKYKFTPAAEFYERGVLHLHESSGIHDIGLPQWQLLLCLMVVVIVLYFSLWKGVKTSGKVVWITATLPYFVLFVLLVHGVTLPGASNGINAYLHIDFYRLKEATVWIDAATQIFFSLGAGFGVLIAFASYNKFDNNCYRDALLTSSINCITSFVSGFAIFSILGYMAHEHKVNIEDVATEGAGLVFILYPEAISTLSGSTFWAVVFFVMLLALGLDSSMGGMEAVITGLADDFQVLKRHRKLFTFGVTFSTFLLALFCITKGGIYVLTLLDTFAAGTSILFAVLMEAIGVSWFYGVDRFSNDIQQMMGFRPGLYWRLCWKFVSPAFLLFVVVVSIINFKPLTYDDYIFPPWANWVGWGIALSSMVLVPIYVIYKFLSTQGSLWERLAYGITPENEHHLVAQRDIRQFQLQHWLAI
Description: PDSP Primary Binding target: SLC6A2 - Compounds are tested at 10 uM concentration, plate are incubated at room temperature in the dark for 90 minutes. Reaction are stopped by vacuum filtration onto 0.3% polyethyleneimine soaked filter mats using Filtermate harvester. Scintilation cocktail is then melted onto microwave-dried filters on a hot plate and the radio activity is counted in Microbia counter.

Chain of Beta-2 adrenergic receptor (Homo sapiens) (P07550 whole entry, looked up): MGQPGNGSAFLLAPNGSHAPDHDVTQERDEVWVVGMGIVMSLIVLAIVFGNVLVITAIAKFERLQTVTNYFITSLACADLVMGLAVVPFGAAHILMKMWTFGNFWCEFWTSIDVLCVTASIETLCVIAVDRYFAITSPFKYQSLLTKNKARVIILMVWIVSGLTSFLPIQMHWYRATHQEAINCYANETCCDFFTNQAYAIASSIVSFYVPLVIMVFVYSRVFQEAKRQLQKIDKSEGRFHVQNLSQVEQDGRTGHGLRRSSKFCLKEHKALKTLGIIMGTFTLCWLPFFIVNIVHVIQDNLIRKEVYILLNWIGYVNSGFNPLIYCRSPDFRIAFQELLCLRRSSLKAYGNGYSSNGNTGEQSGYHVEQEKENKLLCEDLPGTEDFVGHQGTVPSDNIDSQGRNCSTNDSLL

Row | Structure (SMILES) | inhibition [1] [%] | inhibition [2] [%] | inhibition [3] [%] | inhibition [4] [%] | inhibition [5] [%] | inhibition [6] [%] | inhibition [7] [%] | inhibition [8] [%] | inhibition [9] [%] | inhibition [10] [%] | inhibition [11] [%] | inhibition [12] [%] | inhibition [13] [%]
1 | Cc1cc(C(=O)N2Cc3cnn(C)c3Nc3ccccc32)ccc1CNC(=O)N1CCC[C@H]1C(=S)N1CCCN(C)CC1 | -1.47 | 83.3 | -7.44 | 19.8 | -2.71 | 25.9 | 2.87 | 61.7 | -9.04 | 12.3 |  |  | 
2 | COc1ccc(C2(O)OC(=O)C(c3ccc4c(c3)OCO4)=C2Cc2cc(OC)c(OC)c(OC)c2)cc1 (stereo not drawn) |  | 28.8 | 6.35 | 27.4 | -4.11 |  | -2.96 | 9.13 | 37 | -4.54 | -2.9 |  | 
3 | N#Cc1cccc(C(=O)Nc2cc(-c3ccccc3)nn2-c2ccccc2)c1 | 1.08 | 2.45 | 8.95 | 2.12 | -3.29 |  | 0.47 | 16.2 |  | 6.88 | 6.69 |  | 
4 | CN(C(=O)Cc1ccc(Cl)c(Cl)c1)C(CN1CCCC1)c1cccc(OCC(=O)O)c1 (stereo not drawn) | -5.04 | 59.6 | 24.1 | 26.4 |  | 7.24 | 5.65 | 100 | 21.5 | 87.5 | 0.97 | 71.9 | 
5 | CCc1cc2c(c(CC)n1)CCC(=O)N2Cc1ccc(-c2ccccc2-c2nnn[nH]2)cc1 | -4.26 | -1.14 | 24.9 | 8.77 | 25.9 | 8.33 | 3.95 | 3.59 | 45.9 | 51.6 | 10.1 |  | 
6 | CCCCC#Cc1nc(NC)c2ncn([C@@H]3O[C@H](CO)[C@@H](O)[C@H]3O)c2n1 |  | 20 | -7.49 |  | 8.1 | 14.1 |  | 8.14 | 3.46 | 2.4 | 2.49 | 9.12 | 
7 | COc1ccccc1CN[C@H]1C2CCN(CC2)[C@H]1C(c1ccccc1)c1ccccc1 |  | 56.2 | 48.5 | 40 | 1.04 | 13.6 | 3.23 | 49.1 | 30.2 | 9.53 | 8.17 |  | 
8 | Cc1nc(C(=O)N2CCC[C@H]2Cc2nnc(-c3ccccc3)o2)c(-c2ccccc2F)s1 | -2.08 | 29.8 | 35.9 | 26.1 | 9.45 | -1.8 |  | 57.7 | 57.6 | 7.98 | 17.4 | -2.06 | 
9 | Nc1nc2c(c(N3CCNCC3)n1)CCC1=C2[C@@H]2CCCC[C@@H]2O1 |  | -3.04 | 86.4 |  | -8.32 | 98.1 | 31.9 |  | -6.86 | 26.7 | 17.3 |  | 
10 | c1ccc(N2CCN(Cc3nc4ccccc4[nH]3)CC2)nc1 |  | -1.59 | 50.5 | 22.6 |  | -2.37 |  | 54.7 | 6.18 | 4.96 | -0.41 | -5.06 | 
11 | CCCCCNC(=N)N/N=C/c1c[nH]c2ccc(OC)cc12 | 54.7 | 8.93 | 96.6 | 69.1 | 62.5 | 70.2 | 69 | 35.1 | 47.4 | 63.9 | 89 | 12.6 | 
12 | N#Cc1c(N)nc(SCC(N)=O)c(C#N)c1-c1ccc(OCC2CC2)cc1 |  | 10.4 | 62 | 3.03 | -6.52 |  | -9.96 | 89 | 39 | -0.63 | 3.97 | -1.99 | 
13 | CC(C)NCC(O)c1ccc(N)c(C#N)c1 (stereo not drawn) | 95.5 | -0.9 | 22.7 | 29 | -5.56 |  |  | 9.69 |  |  | 18 |  | 4.01
14 | O=C(Nc1ccc(Cl)cc1)Nc1cccc(-c2cccc(N3CCCC3)n2)c1 |  | -5.29 | 47.3 | 18.3 |  | -5.81 | 5.47 | 7.04 | 34.9 | -5.02 |  |  | 
15 | CCc1cc(C(C)=O)c(O)cc1OCCCCCC(C)(C)c1nn[nH]n1 |  | 47.9 | 61.4 | 32.8 | -3.95 | -9.38 | 15.2 | 16.9 | -1.68 | 8.2 | 8.17 |  | 
16 | CC(C)(C)NC[C@H](O)COc1nsnc1N1CCOCC1 |  | 2.12 | 90.3 | 31.4 | -6.31 |  |  | 3.37 | 0.37 | -1.47 |  |  | 
17 | C[C@H](NC[C@H](O)CP(=O)(O)CC1CCCCC1)c1ccc(Cl)c(Cl)c1 | -1.65 | 16.6 | 49.6 | 62.1 | 6.11 | 6.3 |  | 52.3 |  | 60.4 | 2.61 | -5.34 | 
18 | CCCSc1nc(N[C@@H]2C[C@H]2c2ccc(F)c(F)c2)c2nnn([C@@H]3C[C@H](OCCO)[C@@H](O)[C@H]3O)c2n1 | 5.05 | 10.8 | 35.4 | 75.8 |  | 4.33 | 41.2 | 27.5 | 46 | -2.99 | 7.72 | 17.9 | 
